# Measured values taken from patent US20130338130A1 (priority 2009, published 2013).
# “And” between values parts separate entries of the source, which are not always exact repeats. Identical values can stand only once. Like-named read-outs stand apart in the source and are kept apart here.
# How the values were obtained:
# [1] = tested on: ATCC strain 43300 Staphylococcus aureus; assay: MRSA survival in MSM and oxacillin, simulated course of treatment (Example 3); settings: for survival (Log cfu/ml): 6 μg/ml oxacillin added daily + MSM (% in label)
# Procedure: After 24 hours, another 6 μg/ml oxacillin was added to the incubations, bringing the total amount of oxacillin added to 12 μg/ml. […] This experimental paradigm simulates the repeated application of antibiotic that a subject would receive over a course of treatment.
# USP<51> Antimicrobial Effectiveness protocol was used as the template experimental paradigm. […] All concentrations were plated out to the 10^−7 dilutions to ascertain cfu/ml. […] This concentration is the industry standard for determining MRSA resistance in clinical applications. An additional 6 μg/ml oxacillin was added daily.
# Material was calculated on a 10 ml volume. Sterile oxacillin was added to each experimental condition daily at 300 μl from a 30 mg/10 ml concentration giving it a final concentration of 6 μg/ml.
# All tubes were inoculated at a dilution of MRSA giving a final concentration of colony forming units of 9.14×10^5/ml (Log=5.96). The tubes were incubated at 25° C. and mixed periodically. Plating was done at 48 hours and 7 days. […] These were serial diluted down to 10^−7 with 1 ml placed in a sterile petri dish at each dilution point. 20 mls of TSA was added to each dilution and swirled and allowed to solidify. All dilutions were placed in a 35° C. incubator for 24 hours. Plates were counted and colony counts changed into log format. A positive and negative control was ascertained.
# [2] = tested on: ATCC strain 43300 Staphylococcus aureus; settings: for survival (cfu/ml): triplicate platings
# Procedure: Additional antibiotic was added every 24 hours. The growth periods tested were 24 (FIG. 5), 48, 72, 96 and 120 hours.
# USP<51> Antimicrobial Effectiveness protocol was used as the template experimental paradigm. […] All concentrations were plated out to the 10^−7 dilutions to ascertain cfu/ml. […] Additional antibiotic was added at the initial concentration every 24 hours.
# ATCC strain 43300 Staphylococcus aureus was streaked out for isolations. An isolated colony was chosen, streaked again and incubated. Isolate was chosen and then diluted to a McFarland standard of one. The estimated value was then taken to inoculate tubes containing growth media and 12, 30 or 60 μg/ml methicillin with approximately 10^5 cfu/ml. These tubes were incubated and plated for counting cfu.
# Material was calculated on a 10 ml volume. Sterile methicillin was added to each experimental condition to a final concentration of 12, 30 or 60 μg/ml antibiotic. Lactose Broth positive controls both with and without the 12 μg/ml, 30 μg/ml, 60 μg/ml antibiotic were inoculated with MRSA. […] Tubes were set up in singlet, but plated in triplicate, as described below.
# All tubes were then inoculated with a dilution of the selected ATCC strain 43300 Staphylococcus aureus clone giving a final level of colony forming units of 1.49×10^5/ml (log=5.17). The tubes were incubated at 25° C. and mixed periodically. Antibiotic was re-inoculated every 24 hours at the initial concentration to maintain pressure on the organism. Plating was done at 24, 48, 72, and 120 hours. Each condition was plated by diluting 1 ml of growth material into 9 ml of MLB diluent broth. […] This mixture was serial diluted down to 10^−7 with 1 ml placed in triplicate in a sterile petri dish at each dilution point. 20 mls of TSA was added to each dilution, swirled and allowed to solidify. All dilutions were placed in a 35° C. incubator for 24 to 72 hours. Bacterial colonies on each plate were counted and the average taken then changed into log format. […] Graphs were recorded as log of 5.2 for TNTC to show comparison among the other data points.
# The tubes were spun down at 5000 rpm for 10 minutes. The supernatant was then decanted into 90 mls of Mueller-Hinton broth with 6 μg/ml methicillin. This is for enrichment and the recovery of any MRSA cells that may be present wether healthy or stressed. The pellet had 10 mls Mueller-Hinton broth with 6 μg/ml methicillin added to it to recover any cells that may be present. Both vessels were incubated at 35° C. for 48 hours and plated each 24 hours. Each vessel was plated at 10 dilutions to obtain a 1 cfu detection limit. Since all vessels were at a 1/10 dilution in the enrichment solution plating each vessel in this manner gave us a detection limit of 1 cfu/ml. […] This time point for graphing purposes will be reported as 0 logs.
smiles,measurement,setting,value
"CS(C)(=O)=O [MSM, Methylsulfonylmethane]",survival (Log cfu/ml),"[1]; 48 hours, inoculum Log=5.96, listed as 5% MSM",7.0 Log cfu/ml
same,survival (Log cfu/ml),"[1]; 48 hours, inoculum Log=5.96, listed as 8% MSM",4.0 Log cfu/ml
same,survival (Log cfu/ml),"[1]; 48 hours, inoculum Log=5.96, listed as 10% MSM",4.6 Log cfu/ml
same,survival (Log cfu/ml),"[1]; 48 hours, inoculum Log=5.96, listed as 12% MSM",3.8 Log cfu/ml
same,survival (Log cfu/ml),"[1]; 48 hours, inoculum Log=5.96, listed as 13% MSM",3.8 Log cfu/ml
same,survival (Log cfu/ml),"[1]; 48 hours, inoculum Log=5.96, listed as 14% MSM",4.0 Log cfu/ml
same,survival (Log cfu/ml),"[1]; 48 hours, inoculum Log=5.96, listed as 15% MSM",4.1 Log cfu/ml
same,survival (Log cfu/ml),"[1]; 48 hours, inoculum Log=5.96, listed as 16% MSM",5.3 Log cfu/ml
same,survival (Log cfu/ml),"[1]; 7 days, listed as 5% MSM",7.9 Log cfu/ml
same,survival (Log cfu/ml),"[1]; 7 days, listed as 8% MSM",7.6 Log cfu/ml
same,survival (Log cfu/ml),"[1]; 7 days, listed as 10% MSM",7.2 Log cfu/ml
same,survival (Log cfu/ml),"[1]; 7 days, listed as 12% MSM",7.1 Log cfu/ml
same,survival (Log cfu/ml),"[1]; 7 days, listed as 13% MSM",7.2 Log cfu/ml
same,survival (Log cfu/ml),"[1]; 7 days, listed as 14% MSM",7.0 Log cfu/ml
same,survival (Log cfu/ml),"[1]; 7 days, listed as 15% MSM",6.9 Log cfu/ml
same,survival (Log cfu/ml),"[1]; 7 days, listed as 16% MSM",1.0 Log cfu/ml
same,surviving bacteria,"[1]; 6 μg/ml oxacillin added each day, day 7",no surviving bacteria
same,survival (cfu/ml),"[2]; 12 μg/ml methicillin (re-added every 24 hours) + MSM (% in label), 24 hours, inoculum 1.49×10^5/ml, listed as 5% MSM",7.8 × 10^2 cfu/ml and 8.0 × 10^2 cfu/ml and 8.2 × 10^2 cfu/ml
same,survival (cfu/ml),"[2]; 12 μg/ml methicillin (re-added every 24 hours) + MSM (% in label), 24 hours, inoculum 1.49×10^5/ml, listed as 6% MSM",4.0 × 10^2 cfu/ml and 4.4 × 10^2 cfu/ml and 4.5 × 10^2 cfu/ml
same,survival (cfu/ml),"[2]; 12 μg/ml methicillin (re-added every 24 hours) + MSM (% in label), 24 hours, inoculum 1.49×10^5/ml, listed as 7% MSM",4.4 × 10^2 cfu/ml and 5.0 × 10^2 cfu/ml
same,survival (cfu/ml),"[2]; 12 μg/ml methicillin (re-added every 24 hours) + MSM (% in label), 24 hours, inoculum 1.49×10^5/ml, listed as 8% MSM",9.6 × 10^2 cfu/ml and 9.5 × 10^2 cfu/ml and 9.3 × 10^2 cfu/ml
same,survival (cfu/ml),"[2]; 12 μg/ml methicillin (re-added every 24 hours) + MSM (% in label), 24 hours, inoculum 1.49×10^5/ml, listed as 9% MSM",9.0 × 10^2 cfu/ml and 9.4 × 10^2 cfu/ml and 9.2 × 10^2 cfu/ml
same,survival (cfu/ml),"[2]; 12 μg/ml methicillin (re-added every 24 hours) + MSM (% in label), 24 hours, inoculum 1.49×10^5/ml, listed as 10% MSM",1.4 × 10^3 cfu/ml
same,survival (cfu/ml),"[2]; 12 μg/ml methicillin (re-added every 24 hours) + MSM (% in label), 24 hours, inoculum 1.49×10^5/ml, listed as 11% MSM",2.2 × 10^3 cfu/ml and 2.3 × 10^3 cfu/ml
same,survival (cfu/ml),"[2]; 12 μg/ml methicillin (re-added every 24 hours) + MSM (% in label), 24 hours, inoculum 1.49×10^5/ml, listed as 12% MSM",2.9 × 10^3 cfu/ml and 3.0 × 10^3 cfu/ml and 2.8 × 10^3 cfu/ml
same,survival (cfu/ml),"[2]; 12 μg/ml methicillin (re-added every 24 hours) + MSM (% in label), 24 hours, inoculum 1.49×10^5/ml, listed as 13% MSM",3.3 × 10^3 cfu/ml and 3.5 × 10^3 cfu/ml and 3.4 × 10^3 cfu/ml
same,survival (cfu/ml),"[2]; 12 μg/ml methicillin (re-added every 24 hours) + MSM (% in label), 24 hours, inoculum 1.49×10^5/ml, listed as 14% MSM",8.8 × 10^3 cfu/ml and 8.5 × 10^3 cfu/ml and 8.2 × 10^3 cfu/ml
same,survival (cfu/ml),"[2]; 12 μg/ml methicillin (re-added every 24 hours) + MSM (% in label), 24 hours, inoculum 1.49×10^5/ml, listed as 15% MSM",6.4 × 10^3 cfu/ml and 6.6 × 10^3 cfu/ml and 6.5 × 10^3 cfu/ml
same,survival (cfu/ml),"[2]; 12 μg/ml methicillin (re-added every 24 hours) + MSM (% in label), 24 hours, inoculum 1.49×10^5/ml, listed as 16% MSM",1.01 × 10^3 cfu/ml and 1.03 × 10^3 cfu/ml and 1.04 × 10^3 cfu/ml
same,log reduction,"[2]; 12 μg/ml methicillin, 24 hours",2.2 log
same,log reduction in colony count,"[2]; 12 μg/ml methicillin, 48 hours",4.1 log
same,recovery after enrichment in Mueller-Hinton broth,"[2]; 12 μg/ml methicillin, 72 hours, detection limit 1 cfu/ml",true total kill
same,colony count,"[2]; 12 μg/ml methicillin, 96 hours",TNTC
same,recovery after enrichment in Mueller-Hinton broth,"[2]; 12 μg/ml methicillin, 96 hours, detection limit 1 cfu/ml",true total kill
same,colony count,"[2]; 12 μg/ml methicillin, 120 hours",TNTC
same,average log reduction in colony count,"[2]; 12 μg/ml methicillin, all MSM concentrations, 24 hours",1.5 logs
same,survival (cfu/ml),"[2]; 30 μg/ml methicillin + MSM (% in label), 24 hours, listed as 5% MSM",3.8 × 10^2 cfu/ml and 4.1 × 10^2 cfu/ml and 4.0 × 10^2 cfu/ml
same,survival (cfu/ml),"[2]; 30 μg/ml methicillin + MSM (% in label), 24 hours, listed as 6% MSM",2.2 × 10^2 cfu/ml and 2.5 × 10^2 cfu/ml
same,survival (cfu/ml),"[2]; 30 μg/ml methicillin + MSM (% in label), 24 hours, listed as 7% MSM",3.4 × 10^2 cfu/ml and 3.5 × 10^2 cfu/ml and 3.3 × 10^2 cfu/ml
same,survival (cfu/ml),"[2]; 30 μg/ml methicillin + MSM (% in label), 24 hours, listed as 8% MSM",9.4 × 10^2 cfu/ml and 9.6 × 10^2 cfu/ml
same,survival (cfu/ml),"[2]; 30 μg/ml methicillin + MSM (% in label), 24 hours, listed as 9% MSM",1.1 × 10^3 cfu/ml and 1.3 × 10^3 cfu/ml and 1.2 × 10^3 cfu/ml
same,survival (cfu/ml),"[2]; 30 μg/ml methicillin + MSM (% in label), 24 hours, listed as 10% MSM",1.2 × 10^3 cfu/ml and 1.3 × 10^3 cfu/ml and 1.1 × 10^3 cfu/ml
same,survival (cfu/ml),"[2]; 30 μg/ml methicillin + MSM (% in label), 24 hours, listed as 11% MSM",3.3 × 10^3 cfu/ml and 2.8 × 10^3 cfu/ml and 3.1 × 10^3 cfu/ml
same,survival (cfu/ml),"[2]; 30 μg/ml methicillin + MSM (% in label), 24 hours, listed as 12% MSM",3.3 × 10^3 cfu/ml
same,survival (cfu/ml),"[2]; 30 μg/ml methicillin + MSM (% in label), 24 hours, listed as 13% MSM",6.5 × 10^3 cfu/ml and 6.4 × 10^3 cfu/ml
same,survival (cfu/ml),"[2]; 30 μg/ml methicillin + MSM (% in label), 24 hours, listed as 14% MSM",6.3 × 10^3 cfu/ml and 6.7 × 10^3 cfu/ml and 6.9 × 10^3 cfu/ml
same,survival (cfu/ml),"[2]; 30 μg/ml methicillin + MSM (% in label), 24 hours, listed as 15% MSM",7.8 × 10^3 cfu/ml and 7.6 × 10^3 cfu/ml and 8.0 × 10^3 cfu/ml
same,survival (cfu/ml),"[2]; 30 μg/ml methicillin + MSM (% in label), 24 hours, listed as 16% MSM",9.6 × 10^3 cfu/ml and 9.8 × 10^3 cfu/ml and 9.7 × 10^3 cfu/ml
same,log reduction in colony count,"[2]; 30 μg/ml methicillin, 24 hours",2.8 log
same,recovery after enrichment in Mueller-Hinton broth,"[2]; 30 μg/ml methicillin, 120 hours, detection limit 1 cfu",true total kill
same,average log reduction,"[2]; 30 μg/ml methicillin, lower end of MSM concentrations, 24 hours",3 log
same,survival (cfu/ml),"[2]; 60 μg/ml methicillin + MSM (% in label), 24 hours, listed as 5% MSM",8.3 × 10^2 cfu/ml and 8.1 × 10^2 cfu/ml
same,survival (cfu/ml),"[2]; 60 μg/ml methicillin + MSM (% in label), 24 hours, listed as 6% MSM",4.2 × 10^2 cfu/ml and 4.8 × 10^2 cfu/ml
same,survival (cfu/ml),"[2]; 60 μg/ml methicillin + MSM (% in label), 24 hours, listed as 7% MSM",6.1 × 10^2 cfu/ml and 6.3 × 10^2 cfu/ml and 6.2 × 10^2 cfu/ml
same,survival (cfu/ml),"[2]; 60 μg/ml methicillin + MSM (% in label), 24 hours, listed as 8% MSM",9.4 × 10^2 cfu/ml and 9.8 × 10^2 cfu/ml and 9.7 × 10^2 cfu/ml
same,survival (cfu/ml),"[2]; 60 μg/ml methicillin + MSM (% in label), 24 hours, listed as 9% MSM",2.0 × 10^3 cfu/ml and 1.6 × 10^3 cfu/ml and 1.8 × 10^3 cfu/ml
same,survival (cfu/ml),"[2]; 60 μg/ml methicillin + MSM (% in label), 24 hours, listed as 10% MSM",2.2 × 10^3 cfu/ml and 2.1 × 10^3 cfu/ml and 2.0 × 10^3 cfu/ml
same,survival (cfu/ml),"[2]; 60 μg/ml methicillin + MSM (% in label), 24 hours, listed as 11% MSM",3.5 × 10^3 cfu/ml and 3.8 × 10^3 cfu/ml and 3.9 × 10^3 cfu/ml
same,survival (cfu/ml),"[2]; 60 μg/ml methicillin + MSM (% in label), 24 hours, listed as 12% MSM",4.5 × 10^3 cfu/ml and 4.1 × 10^3 cfu/ml and 4.7 × 10^3 cfu/ml
same,survival (cfu/ml),"[2]; 60 μg/ml methicillin + MSM (% in label), 24 hours, listed as 13% MSM",7.0 × 10^3 cfu/ml and 6.8 × 10^3 cfu/ml and 6.5 × 10^3 cfu/ml
same,survival (cfu/ml),"[2]; 60 μg/ml methicillin + MSM (% in label), 24 hours, listed as 14% MSM",8.3 × 10^3 cfu/ml and 8.8 × 10^3 cfu/ml and 8.5 × 10^3 cfu/ml
same,survival (cfu/ml),"[2]; 60 μg/ml methicillin + MSM (% in label), 24 hours, listed as 15% MSM",8.3 × 10^3 cfu/ml and 8.5 × 10^3 cfu/ml and 8.4 × 10^3 cfu/ml
same,survival (cfu/ml),"[2]; 60 μg/ml methicillin + MSM (% in label), 24 hours, listed as 16% MSM",8.4 × 10^3 cfu/ml and 8.5 × 10^3 cfu/ml
same,log reduction in colony count,"[2]; 60 μg/ml methicillin, 48 hours",4.1 log
same,recovery after enrichment in Mueller-Hinton broth,"[2]; 60 μg/ml methicillin, 72 hours, detection limit 1 cfu/ml",true total kill
same,colony count,"[2]; 60 μg/ml methicillin, 96 hours",TNTC
same,recovery after enrichment in Mueller-Hinton broth,"[2]; 60 μg/ml methicillin, 120 hours, detection limit 1 cfu",true total kill
same,growth,"[2]; positive 5%, 10%, and 16% MSM controls, no antibiotic, 24 hours","signs of turbid growth, was TNTC for all dilutions plated"
